Measurements as given in patent publication US20170049843A1, “Hepatocyte Growth Factor Mimics as Therapeutic Agents” (WASHINGTON STATE UNIVERSITY, priority 2011, published 2017).
“And” between values parts separate entries of the source, which are not always exact repeats. Equal entries are not always repeated. Where a SMILES comes first, the peptide text is derived from it. [ ]: non-standard residue; d: D form. The star is where a group is joined. Nle = CCCC[C@H](N)C(=O)O; Hexanoyl = CCCCCC(=O)*; Ahx = NCCCCCC(=O)O

Tests used:
Assay type in all cases: cell-based, rat
c-Met receptor = assay: c-Met phosphorylation in acute adult hippocampal slices; settings: 30 minutes
From the text: Adult Sprague-Dawley rats (250 g+) obtained from Harlan Laboratories (Ca, USA) were anesthetized with isofluorane (Vet One™, MWI, Meridian, Id., USA) and decapitated. The brain was rapidly removed and placed into ice-chilled artificial cerebrospinal fluid (aCSF) for approximately 30 s. Both hemispheres were separated by a mid-saggital cut and both hippocampi removed. Slices were sectioned cross- and length-wise (400 μm) to ensure penetrability of the drug, using a McIlwain tissue chopper (Brinkmann, Gomshall, UK) and transferred to a gassed (95% O2/5% CO2) incubation chamber containing aCSF for 90 minutes at room temperature. Slices were transferred to fresh tubes, aCSF was removed by careful suctioning and replaced with aCSF containing vehicle (aCSF+aCSF), 100 ng/ml with carrier free adult recombinant Hepatocyte Growth Factor (HGF) (R and D Systems, MN, USA) in aCSF, 10^−10 M Hinge (Harding lab), […], 10^−10 M Dihexa (Harding lab) in aCSF, 10^−12 M Dihexa in aCSF or 50 ng/ml HGF+10^−12 M Dihexa in aCSF for 30 minutes at 37° C. with gentle rocking. aCSF was removed and the slices were lysed using RIPA buffer (Upstate/Milipore, Billerica, Mass.) and inhibitor Cocktails I and II (Sigma, St. Louis, Mo.), sonicated on ice and clarified by centrifugation for 30 minutes, 13,000 rpm at 4° C. The supernatant was removed from the pellet and stored at −80° C. or processed immediately for gel electrophoresis.
Protein concentration of the samples was quantified using the BCA method (Pierce, Rockford, Ill.) following the manufacturers protocol. Samples were added to SDS-PAGE buffer and boiled for 10 min. before loading onto a 4-12% Bis-Tris pre-cast gel (Invitrogen, Carlsbad, Calif.) for electrophoresis. Proteins were transferred onto PVDF membranes (Bio Rad, Hercules, Calif.) and blocked with AquaBlock™ (New England Biolabs, Ipswich, Mass.) for 1 hour at room temperature (RT). Primary antibody incubation was done in AquaBlock™ with rabbit anti-Met and […] phospho-Met (Tyr1234/1235) (1:1000, Cell Signaling Technology, Danvers, Mass.) overnight at 4° C. Alternating washes were done with PBS and PBST. Secondary antibody (IRDye) (Rockland, Gilbertsville, Pa.) incubations were done in AquaBlock™ for one hour at RT. Blots were imaged using LI-COR Odyssey Infrared Imaging System (LI-COR Biosciences, Lincoln, Nebr.).

CA1 hippocampal neurons = assay: Spinogenesis in organotypic hippocampal slice cultures (CA1 neurons); settings: for spines per 50 μm dendrite length, CA1 neurons: 10-12 M, 2 day treatment, control 7; for mean spine numbers per 50 μm dendrite length, CA1 neurons: 10^−12 M Dihexa or 10 ng/ml HGF, 48 hours, control 6.1
Experimental: (§1) Hippocampi from P4 Sprague Dawley rats were cultured as previously described (Wayman, Impey et al. 2006). Briefly, 400 μm slices were cultured on (Milipore, Billerica, Mass.) for 3 days after which they were biolistically transfected with tomato fluorescent protein (TFP) using a Helios Gen Gun (BioRad, Hercules, Calif.), according to the manufacturer's protocol, to visualize dendritic arbors. Following a 24 hour recovery period slices were stimulated with vehicle (H2O), 1 pM Nle1-AngIV or Dihexa for 2 days. Slices were fixed and mounted. Hippocampal CA1 neuronal processes were imaged and measured as described above.
as §1, with “Gene” for “Gen”, “with” for “with vehicle (H2O),”

hippocampal neurons [1] = assay: Spinogenesis in mRFP-β-actin transfected dissociated hippocampal neurons; settings: 5 days; for spine numbers per 50 μm dendrite length: biologically active doses, printed as 10^−13 M, control 17.4
Experimental: Hippocampal neurons ([…] cells per square cm) were cultured from P1 Sprague Dawley rats on plates coated with poly-L-lysine from Sigma (St. Louis, Mo.; molecular weight 300,000). Hippocampal neurons were maintained in Neurobasal A media from Invitrogen (Carlsbad, Calif.) supplemented with B27 from Invitrogen, 0.5 mM L-glutamine, and […] cytosine-D-arabinofuranoside from Sigma added at 2 days in vitro. Hippocampal neurons were then cultured a further 3-7 days, at which time they were either transfected or treated with various pharmacological reagents as described in (Wayman, Davare et al. 2008).
(§2) Neurons were transfected with mRFP-β-actin on day in vitro 6 (DIV6) using LipofectAMINE™ 2000 (Invitrogen) according to the manufacturer's protocol. This protocol yielded the desired 3-5% transfection efficiency thus enabling the visualization of individual neurons. Higher efficiencies obscured the dendritic arbor of individual neurons. Expression of fluorescently tagged actin allowed clear visualization of dendritic spines, as dendritic spines are enriched in actin. On DIV7 the cells were treated with vehicle (H20) or peptides (as described in the text) added to media. On DIV12 the neurons were fixed (4% paraformaldehyde, 3% sucrose, 60 mM PIPES, 25 mM HEPES, 5 mM EGTA, 1 mM MgCl2, pH 7.4) for 20 min at room temperature and mounted. Slides were dried for at least 20 hours at 4° C. and fluorescent images were obtained with Slidebook 4.2 Digital Microscopy Software driving an Olympus IX81 inverted confocal microscope with a 60× oil immersion lens, NA 1.4 and resolution 0.280 μm Dendritic spine density was measured on primary and secondary dendrites at a distance of at least 150 μm from the soma. Five 50 μm long segments of dendrite from at least 10 neurons per data point were analyzed for each data point reported. Each experiment was repeated at least three times using independent culture preparations. Dendrite length was determined using the National Institutes of Health's Image J 1.41o program (NIH, Bethesda, Md.) and the neurite tracing program Neuron J (Meijering, Jacob et al. 2004) Spines were manually counted.
Hippocampal neurons (2×10^5 cells per square centimeter) were cultured from P1-2 Sprague Dawley rats on plates coated with poly-L-lysine from Sigma (St. Louis, Mo.; molecular weight 300,000). Hippocampal neurons were maintained in Neurobasal A media from Invitrogen (Carlsbad, Calif.) supplemented with B27 from Invitrogen, 0.5 mM L-glutamine, and […] cytosine-D-arabinofuranoside from Sigma added at 2 days in vitro. Hippocampal neurons were then cultured a further 3-7 days, at which time they were either transfected or treated with various pharmacological reagents as described in the text or figure legends.

hippocampal neurons [2] = assay: Dendritic spine head width in hippocampal neurons; settings: 10^−12 M; control 0.67 μm
From the text: as §2, with “On DIV12 the neurons were fixed (4% paraformaldehyde, 3% sucrose, 60 mM PIPES, 25 mM HEPES, 5 mM EGTA, 1 mM MgCl2, pH 7.4) for 20 min at room temperature and mounted.” left out, “Each experiment was repeated at least three times using independent culture preparations.” left out, “counted. […]” for “counted.”

[3] = non-saturating doses: HGF 50 ng/ml, Dihexa 10^−12 M
[4] = saturating doses: HGF 100 ng/ml, Dihexa 10^−10 M

Compound	c-Met phosphorylation vs control (aCSF) (c-Met receptor; [3])	c-Met phosphorylation vs control (aCSF) (c-Met receptor; [4])	spines per 50 μm dendrite length, CA1 neurons (CA1 hippocampal neurons)	mean spine numbers per 50 μm dendrite length, CA1 neurons (CA1 hippocampal neurons)	spine numbers per 50 μm dendrite length (hippocampal neurons [1])	average spine head width (hippocampal neurons [2])	mean spine numbers per 50 μm dendrite length (hippocampal neurons [1]; HGF 5 ng/ml)	mean spine numbers per 50 μm dendrite length (hippocampal neurons [1]; HGF 10 ng/ml)	mean spine numbers per 50 μm dendrite length (hippocampal neurons [1]; HGF 20 ng/ml)
CCCCCC(=O)N[C@@H](Cc1ccc(O)cc1)C(=O)N[C@H](C(=O)NCCCCCC(N)=O)[C@@H](C)CC [Dihexa, N-hexanoic-Tyr-Ile-(6)-aminohexanoic amide] (Hexanoyl-Tyr-Ile-[Ahx]-NH2)	not statistically different from control treated slices	increased c-Met phosphorylation	11 spines per 50 μm dendrite length	15.0	26.4	0.80 μm			
CCCC[C@H](N)C(=O)N[C@@H](Cc1ccc(O)cc1)C(=O)N[C@H](C(=O)N[C@@H](Cc1c[nH]cn1)C(=O)N1CCC[C@H]1C(=O)N[C@@H](Cc1ccccc1)C(=O)O)[C@@H](C)CC [Nle1-AngIV, reference compound] (H-[Nle]YIHPF-OH; N-terminus and C-terminus assumed)			11 spines per 50 μm dendrite length		29.8	0.87 μm			
HGF: recombinant hepatocyte growth factor (R&D Systems), ligand of c-Met	not statistically different from control treated slices	increased c-Met phosphorylation		18.5			24.7	27.5 and 33 and 29.3	27.0
